Source: patent US20230128609A1, “TUMOR SUPPRESSION BY MODULATION OF NON-CANONICAL AUTOPHAGY (LAP) IN MYELOID CELLS” (St. Jude Children's Research Hospital, priority 2017, published 2023)

System: RAW cells expressing Venus-LC3
Test: Evaluation of LAP, as assessed by LC3-II lipidation upon zymozan stimulation, by flow cytometry
Format: cell-based
Conditions: RAW cells expressing Venus-LC3 stimulated with zymozan-Alexa594 (ZYM) for 1 h, treatment started 30 min prior to stimulation, digitonin-permeabilized cells
Method: (FIG. 9D) Evaluation of LAP, as assessed by LC3-II lipidation upon stimuli. RAW cells expressing Venus-LC3 were stimulated with ZYM for 1 h, treated with digitonin and accumulation of lipidated LC3-II in permeabilized cells was measured by flow cytometry. (FIG. 9E) Quantification of FIG. 9D, in MFI. […] Flow cytometry analysis. At the indicated time points, GFP-LC3+ cells can be collected, washed once with FACS buffer, and permeabilized with digitonin (Sigma, 200 g ml-1) for 15 min on ice. Cells can be washed 3 times with FACS buffer and analysed by flow cytometry for membrane-bound GFP—LC3—II.

| SMILES | LAP activity in vitro (LC3-II lipidation upon stimuli) |
| --- | --- |
| c1ccc2c(c1)[I+]c1ccccc1-2 [DPI, diphenyleneiodonium] | abrogates LAP activity |
| COc1cc(C(C)=O)ccc1O [apocynin] | abrogates LAP activity |
